{"source": "paper PMC8385015", "about": "“Tumour-on-chip microfluidic platform for assessment of drug pharmacokinetics and treatment response” (Communications Biology, 2021)", "type_in_all_cases": "cell-based", "key": {"SW620 spheroids": {"system": "SW620 spheroids", "experiment": "SW620 spheroid size/volume, microfluidic Ibidi chip mimicking mouse PK profile", "protocol": "Spheroid images were taken for each experimental endpoint (day 7) using a Leica DMI4000B microscope (Leica Microsystems) with brightfield (BF), phase-contrast and fluorescence filters. Each flow line used two chips, one for viability assays and second for immunofluorescence. Both chips were imaged in BF prior spheroid recovery. Hardware embedded microscope scale has been translated in Fiji ImageJ to evaluate spheroid area/volume. The average size for SW620 spheroids was evaluated by measuring spheroid projection area in bright-field images, based on a macro script designed in an open-source imaging software (Fiji ImageJ) (Supplementary Method 1). Spheroid volume was evaluated following radius deduction from the measured area."}, "Ki67": {"system": "Ki67", "experiment": "Ki67 immunofluorescence in SW620 spheroids, microfluidic chip", "from_the_text": "(§1) SN38 is a TOP1 inhibitor that that prevents relegation of the DNA strand by binding to TOP1–DNA complex and causes DNA double strand breaks (DSBs). Those DNA DSB lesions trigger activation of the ATM kinase for effective repair. Inhibition of ATM and consequent accumulation of unrepaired breaks leading to increased cell death provides the rationale for developing this combination for cancer treatment. […] Here, we tested whether different schedules lead to different activation of pharmacodynamic markers that are associated with DNA DSB damage, apoptosis and cell proliferation. The γ-H2AX associated foci accumulate in cells exposed to DBS inducing agents[18],[19]. These foci can be detected by immunostaining to determine their, size and morphology. However, spheroid imaging using a 20x objective on a CV7000 confocal microscope cannot accurately explore foci morphology, so we introduced customised ImageJ macros (described in “Methods” section, Supplementary Fig. 2 and Supplementary Method 1) to quantitate positive cells within a spheroid. The same method was applied to quantitate CC3-positive (apoptotic) cells, while normalisation by spheroid area was not required for Ki67, as this biomarker is present in all proliferating cells. […]\nTotal Hoechst area represents a parameter used for normalization within biomarker quantitation. […]"}, "γH2AX": {"system": "γH2AX", "experiment": "γH2AX immunofluorescence in SW620 spheroids, microfluidic chip", "conditions": "SN38 monotherapy, day 7", "from_the_text": "as §1\nSupplementary Figure 2. Fluorescence image processing, per biomarker, using Fiji ImageJ custom-made macros […]"}}, "note": "Several values for one entry are separate records, joined by “and”; a condition that tells them apart may be missing. Equal values may be shown once.", "data": [{"smiles": "CCc1c2c(nc3ccc(O)cc13)-c1cc3c(c(=O)n1C2)COC(=O)[C@]3(O)CC", "note": "[SN38]", "values": [{"measurement": "spheroid size at day 6, fold increase in size over day 1", "setting": "SW620 spheroids; Microfluidic Ibidi chip, PK-profile exposure, 6 days, single spheroids (Fig 2c raw data)", "result": "2.9097 and 2.688 and 2.723 and 2.5658"}, {"measurement": "spheroid volume as percentage of untreated control", "setting": "SW620 spheroids; microfluidic chip, SN38 mono (1d), day 7", "result": 55, "unit": "%"}, {"measurement": "Ki67 positive area", "setting": "Ki67; Mono SN38, day 7, single spheroids", "result": "3.88E+07 and 4.54E+07 and 3.33E+07 and 4.06E+07 and 4.69E+07"}, {"measurement": "decrease in proliferation (Ki67) compared to control", "setting": "Ki67; SN38 monotherapy, day 7", "result": "about 20%"}, {"measurement": "change in γH2AX compared to the control group", "setting": "γH2AX", "result": "did not observe a significant change"}]}]}
